Assay results published in patent publication US9719981B2, “RAC1 inhibitors for the treatment of alport glomerular disease” (Father Flanagan's Boys' Home, priority 2012, dated 2017).

How the values were obtained:
[1] = system: CDC42; experiment: ELISA for GTP-CDC42 in endothelin-1 treated mesangial cells; assay type: cell-based, mouse
Description: (§1) FIG. 30. Treatment of mesangial cells with endothelin-1 activates CDC42 and induces the formation of drebrin-positive actin microspikes; microspikes and CDC42 activation are inhibited by pre-treatment of cells with Sitaxentan. A) Cultured mesangial cells were serum starved, pretreated for 1 hour with or without Sitaxentan, treated for 30 minutes with endothelin-1, fixed with acetone, and dual stained with anti-drebrin antibodies (red) and phalloidin (green). Drebrin-positive microspikes (filopodia, denoted by arrowheads) are highly abundant on the endothelin-treated cells, but not detected when the cells are pre-treated with Sitaxentan. B) Cells were treated as in A, then lysates prepared and assayed by ELISA for GTP-CDC42.
(§2) To address this, serum-starved cultured mesangial cells were pre-treated (or not) with the ETAR antagonist, Sitaxentan, and then stimulated the cells with endothelin-1. Cells were then dual labeled with anti-drebrin antibodies (drebrin stabilizes actin filaments in filopodia) and phalloidin. […] Lysates from cultured mesangial cells were further analysed using these same conditions for the activation of CDC42 using a commercial ELISA assay for GTP-CDC42.

[2] = system: 129 autosomal Alport mice; experiment: Endothelin receptor blockade (Bosentan or Sitaxentan) in 129 autosomal Alport mice; assay type: in vivo, mouse; conditions: for Mesangial filopodial invasion and deposition of laminin 211 in the glomerular capillaries: Alport mouse model; for Ameliorating Alport renal disease (comparison of the two antagonists) / GBM structural abnormalities / Glomerular expression of MMPs and pro-inflammatory cytokines / Mesangial process invasion of the glomerular capillaries / Onset and progression of proteinuria: treated from 2 to 7 weeks of age
Description: With this example, 129 autosomal Alport mice were given either Bosentan (an endothelin A and B receptor antagonist) or Sitaxentan (an endothelin A receptor antagonist) from 2 to 7 weeks of age. Mice were analyzed longitudinally for proteinuria and BUN, glomerular RNA for gene expression of MMPs and pro-inflammatory cytokines by real time RT-PCR, and tissue was analyzed histochemistry and immunohistochemistry for pathologic changes.
To determine whether ETR antagonism prevents mesangial filopodia formation in vivo, we treated 129 Sv Alport mice with either Bosentan (ETAR and ETBR antagonist) or Sitaxentan (an ETAR antagonist) from 2 weeks to 7 weeks of age.

[3] = system: 129 Sv autosomal Alport mice; experiment: Sitaxentan treatment of 129 Sv autosomal Alport mice; assay type: in vivo, mouse
Description: FIG. 32. […] At least 6 glomeruli from at least 3 independent animals per group were analyzed by quantifying red fluorescence in circumferential capillary loops (defined by laminin α5 immunostaining in green) using NIH image J software. Mesangial angles were excluded. A) An example of how the capillaries were partitioned for these measures. B) Immunogold labeling for integrin α8 in a filopodial cross-section on the sub-endothelial aspect of an Alport capillary loop (arrow). Note the absence of immunogold labeling in the podocyte pedicles (asterisks) and the fenestrated endothelium (arrowheads). C) Quantitative results for red fluorescence in the capillary loops.
FIG. 33. […] Urine was collected at the indicated time points and analyzed for albumin using an ELISA kit. Albumin measures were normalized to urinary creatinine. Note that measurable albumin in the Sitaxentan-treated mice was not detected until 6 weeks of age indicating a delayed onset of glomerular disease.
129 Sv autosomal Alport mice were given Sitaxentan once daily by oral gavage from 2 weeks to 7 weeks of age. Kidney cryosections were immunostained using antibodies for laminin α2 and integrin α8 to determine the effect of drug treatment on laminin 211 deposition in the GBM or laminin α5 and integrin α8 to determine the degree of mesangial filopodial invasion in the glomerular capillaries. In addition, transmission electron microscopy was used to determine whether the ETAR antagonist ameliorates GBM damage.

[4] = system: cultured mesangial cells; experiment: Endothelin-1 induced drebrin-positive actin microspikes in mesangial cells; assay type: cell-based, mouse
Description: as §1, §2

[5] = system: cultured wild type mesangial cells; experiment: LPS-induced actin cytoskeletal rearrangement (phalloidin staining); assay type: cell-based, mouse; conditions: 10 ng/ml LPS; 10 μM Rac-1 inhibitor or 1 μM CDC42 inhibitor; blinded
Description: Activation of mesangial cell cultures by treatment with LPS. Sub-confluent mesangial cells were tryspinized; plated at low density on Rat tail type 1 collagen (BD Biosciences) coated cytology slides (VWR) and incubated overnight in 1% FCS-containing media. One hour after the addition of serum-free media, 1 μM CDC42 Inhibitor (KSC-23-233) and 10 μM Rac-1 Inhibitor, NSC-23766 (Tocris) were added to individual slides and allowed to incubate for an additional hour. 10 ng/ml Lipopolysaccharides (Sigma-Aldrich) was added to cells, incubated 1 hour, fixed in ice cold acetone for 5 minutes and allowed to air dry ˜2 hours. Cells were stained with a 1:100 dilution of antibodies specific for CDC42 (10155-1-AP, PROTEINTECH™), and phalloidin (Molecular Probes) imaged. Untreated, LPS alone and LPS plus inhibitors treatments were repeated on two different derivations of primary mesangial cells with qualitatively consistent results.

[6] = system: integrin α1-null mesangial cells; experiment: Boyden chamber (Transwell) cell migration assay, integrin α1-null mesangial cells; assay type: cell-based, mouse; conditions: relative to 10% FCS
Description: MES Migration (insert). Transwell cell migration assays were performed as described by Daniel et al. (Daniel et al., 2012, Lab Invest; 92(6): 812-26) with some modifications. 8 micron, 24-well plate control inserts (BD Bioscience, Bedford, Mass.) were coated overnight at 4° C. with 100 μl of 0.1% gelatin/PBS then washed 1× with PBS. MES cultures were incubated in 1% FCS overnight, then 0.05% BSA-containing media for at least 8 hours, washed 1× with PBS and carefully tryspinized to ensure a single cell suspension and limited “clumping” of cells. After serum-neutralization and subsequent centrifugation, ˜100,000 cells were resuspended in 1.5 mls of 0.05% BSA media containing activators/inhibitors. The wells of a 24-well plate were filled with 0.75 mls of 10% FCS-containing media plus activators/inhibitors (excluding 0.05% BSA control well). 0.5 ml of cell-suspension was loaded into the gelatin-coated insert and the insert placed in a well. Wells were visually inspected for bubbles beneath insert and equal distribution of cell-suspension. Cells were allowed to migrate overnight (˜18 hrs). […] Inserts were air dried and counted at 100× magnification. Five fields were counted on each insert including one center and four periphery areas. Data was expressed as relative to 10% FCS control well (set equal to one).

[7] = system: Alport mice on the 129 Sv background; experiment: Treatment of Alport mice with Rac1 inhibitor; assay type: in vivo, mouse; conditions: injected once daily from 2 weeks to 6 weeks of age; relative to saline
Description: FIG. 9. Treatment of Alport mice with Rac1 inhibitors partially ameliorates mesangial cell process invasion of the glomerular capillary tufts. […] Kidney cryosections were analyzed by dual immunofluorescence immunostaining using antibodies against either laminin α2 (B and E) or integrin α8 (A and D). […] represent a merging of results from staining with laminin α2 and integrin α8. The degree of mesangial process invasion of the glomerular capillary tufts was ameliorated in the Rac1 inhibitor-treated mice relative to mice injected with saline.
To examine the effect of Rac1 inhibitors on Alport glomerular disease progression, either wild type or Alport mice were treated with inhibitors by IP injection from 2 weeks to 6 weeks of age. Glomeruli were examined for mesangial process invasion of the capillary tufts by dual immunofluorescence microscopy using antibodies specific for either integrin α8 or the GBM marker laminin α5. […] Combined, the data in FIG. 7, FIG. 8, and FIG. 9 confirm that mesangial process invasion of the glomerular capillaries is a Rac1-dependent process, and that Rac1 activation is attenuated by integrin α1 deletion both in vitro and in vivo.
Immunofluorescence microscopy. Fresh frozen kidneys were sectioned at 8 μm and acetone fixed. […]

[8] = system: primary cultured mesangial cells; experiment: Boyden chamber (Transwell) cell migration assay, wild type mesangial cells; assay type: cell-based, mouse; conditions: relative to 10% FCS, p<0.05
Description: MES Migration (insert). Transwell cell migration assays were performed as described by Daniel et al. (Daniel et al., 2012, Lab Invest; 92(6): 812-26) with some modifications. 8 micron, 24-well plate control inserts (BD Bioscience, Bedford, Mass.) were coated overnight at 4° C. with 100 μl of 0.1% gelatin/PBS then washed 1× with PBS. MES cultures were incubated in 1% FCS overnight, then 0.05% BSA-containing media for at least 8 hours, washed 1× with PBS and carefully tryspinized to ensure a single cell suspension and limited “clumping” of cells. After serum-neutralization and subsequent centrifugation, ˜100,000 cells were resuspended in 1.5 mls of 0.05% BSA media containing activators/inhibitors. The wells of a 24-well plate were filled with 0.75 mls of 10% FCS-containing media plus activators/inhibitors (excluding 0.05% BSA control well). 0.5 ml of cell-suspension was loaded into the gelatin-coated insert and the insert placed in a well. Wells were visually inspected for bubbles beneath insert and equal distribution of cell-suspension. Cells were allowed to migrate overnight (˜18 hrs). Using a moistened cotton swab, non-migrated cells were liberated from the apical-side of the insert by gentle but firm rubbing. A second swab repeated the removal and was followed by a single wash with PBS. Inserts were fixed, stained and washed (2×) in companion 24 well plate(s) containing 0.5 mls MEOH, 0.5 mls 1% Toluidine Blue in 1% Borax and 0.5 mls distilled H2O, respectively. Inserts were air dried and counted at 100× magnification. Five fields were counted on each insert including one center and four periphery areas. Data was expressed as relative to 10% FCS control well (set equal to one).

[9] = system: 129 Sv autosomal Alport mice; experiment: Bosentan treatment of 129 Sv autosomal Alport mice; assay type: in vivo, mouse
Description: It is known that matrix metalloproteinases (MMPs), transforming growth factor beta 1 (TGF-β1), and monocyte chemoattractant protein-1 (MCP-1) contribute to the progression of Alport glomerular pathology (Cosgrove et al., 2000, Am J Pathol; 157(5):1649-59; Rao et al., 2006, Am J Pathol; 169(1):32-46; Eisberg et al., 2006, PLoS Med; 3(4):e100). 129 Sv autosomal Alport mice and wild type littermates were treated with 100 mg/kg Bosentan or with […] vehicle by oral gavage from 2 to 7 weeks of age. One kidney was prepared for immunohistochemistry, and the other used for glomerular RNA isolation. […] MMP-9 expression was not affected; however this MMP has been shown not to contribute to progression of Alport glomerular disease (Andrews et al., 2000, Am J Pathol; 157(1):303-11). Kidney cryosections from these same mice were immunostained using antibodies against fibronectin, to assess interstitial fibrosis, and CD11b, to assess the degree of monocytic interstitial infiltration.

[10] = pretreated 1 hour, endothelin-1 for 30 minutes
[11] = 100 mg/kg oral gavage from 2 to 7 weeks of age, vs vehicle
[12] = serum-starved cells, 30 minutes

Compound: Cc1cc2c(cc1CC(=O)c1sccc1S(=O)(=O)Nc1onc(C)c1Cl)OCO2 [Sitaxentan, N-(4-chloro-3-methyl-1,2-oxazol-5-yl)-2-[2-(6-methyl-2H-1,3-benzodioxol-5-yl)acetyl]thiophene-3-sulfonamide]
- Endothelin-1 induced CDC42 activation (GTP-CDC42), with antagonist pretreatment [1, 10]: prevents
- Mesangial filopodial invasion and deposition of laminin 211 in the glomerular capillaries [2]: highly effective
- Ameliorating Alport renal disease (comparison of the two antagonists) [2]: equally effective
- GBM structural abnormalities [2]: ameliorating
- Glomerular expression of MMPs and pro-inflammatory cytokines [2]: significantly reducing
- Mesangial process invasion of the glomerular capillaries [2]: markedly reduced
- Onset and progression of proteinuria [2]: delaying the onset and progression
- GBM architecture (transmission electron microscopy) ([3]; 7 weeks of age): normalization
- Interstitial fibrosis (fibronectin immunostaining) ([3]; 7 weeks of age): profoundly ameliorated
- Monocyte recruitment to the renal interstitium (CD11b immunostaining) ([3]; 7 weeks of age): profoundly ameliorated
- Capillary integrin α8 immunostaining (quantified red fluorescence) ([3]; at least 6 glomeruli from at least three mice per group): normalization
- Age at which proteinuria was first detected ([3]; normally detected by 3 weeks of age): 6 weeks of age
- Mesangial filopodial invasion of glomerular capillaries ([3]; once daily oral gavage from 2 weeks to 7 weeks of age, vs vehicle): near complete absence
- Proteinuria after the onset ([3]; urinary albumin normalized to creatinine): significantly reduced
- Glomerular expression of MMP-10, -12 and MCP-1 compared with the reduction seen with Bosentan ([3]; with the exception of TGF-β1): quantitatively similar results
- Endothelin-1 induced formation of drebrin-positive microspikes, with antagonist pretreatment [4, 10]: blocks

Compound: CCN(CC)CCCC(C)Nc1nc(C)cc(Nc2ccc3nc(C)cc(N)c3c2)n1 (centres unmarked) [NSC 23766]
- LPS-induced morphological change (filopodia / actin spikes) in presence of inhibitor [5]: could not be distinguished in blinded experiments form untreated wild type mesangial cells
- Integrin α1-null mesangial cell migration [6]: unaffected
- Degree of mesangial process invasion of the glomerular capillary tufts [7]: ameliorated
- Migration of wild type mesangial cells [8]: significantly reduced

Compound: COc1ccccc1Oc1c(NS(=O)(=O)c2ccc(C(C)(C)C)cc2)nc(-c2ncccn2)nc1OCCO [Bosentan, 4-tert-butyl-N-[6-(2-hydroxy-ethoxy)-5-(2-methoxy-phenoxy)[2,{acuteover (2)}]-bipyrimidin-4-yl]-benzenesulfonamide monohydrate]
- Mesangial filopodial invasion and deposition of laminin 211 in the glomerular capillaries [2]: highly effective
- Ameliorating Alport renal disease (comparison of the two antagonists) [2]: equally effective
- GBM structural abnormalities [2]: ameliorating
- Glomerular expression of MMPs and pro-inflammatory cytokines [2]: significantly reducing
- Mesangial process invasion of the glomerular capillaries [2]: markedly reduced
- Onset and progression of proteinuria [2]: delaying the onset and progression
- Glomerular MMP-9 expression [9, 11]: not affected
- Glomerular mRNA expression of IL-6 [9, 11]: significant reduction
- Glomerular mRNA expression of MMP-10 [9, 11]: significant reduction
- Glomerular mRNA expression of MMP-12 [9, 11]: significant reduction
- Glomerular mRNA expression of TGF-β1 [9, 11]: significant reduction
- Interstitial fibrosis (fibronectin immunostaining) ([9]; 7 weeks of age, vs vehicle): near complete blockade
- Mesangial process invasion of glomerular capillaries (integrin α8 / laminin α5 immunostaining) ([9]; 7 weeks of age, vs vehicle): largely localized to the mesangial matrix, with occasional interposition into the capillary loops observed
- Monocytic interstitial infiltration (CD11b immunostaining) ([9]; 7 weeks of age, vs vehicle): near complete blockade
- Glomerular expression of MCP-1 ([9]; Bosentan-treated Alport mice vs vehicle): significantly reduced

Compound: ML141
- LPS-induced morphological change (filopodia / actin spikes) in presence of inhibitor [5]: could not be distinguished in blinded experiments form untreated wild type mesangial cells
- Integrin α1-null mesangial cell migration [6]: unaffected
- Migration of wild type mesangial cells [8]: significantly reduced

Compound: endothelin-1: stimulus activating endothelin receptors on mesangial cells
- CDC42 activation (GTP-CDC42) on stimulation [1, 12]: significantly activates
- Formation of drebrin-positive filopodial microspikes on stimulation [4, 12]: induces

Compound: CCn1c(-c2nonc2N)nc2c(C#CC(C)(C)O)ncc(OC[C@H]3CCCNC3)c21 [GSK 690693]
- Migration of wild type mesangial cells [8]: not affected
